Assay results from patent US4308256A, “Method of inducing analgesia” (American Home Products Corporation, priority 1980, dated 1981).

Legend:
male Charles River rats = test: D'Amour-Smith rat tail-flick procedure (radiant heat, 8 second cut-off), intraventricular injection; format: in vivo
Experimental: Intraventricular cannulae, made of 27-gauge stainless steel tubing, are implanted in 300-400 g. male Charles River rats under pentobarbital anesthesia. After a recovery period of at least one week, the rats are restrained in a wire-mesh cylindrical chamber so that the tip of the tail can be positioned at the focal point of a radiant heat source. After an acclimatistation period of 5 minutes, the lamp is turned on and an electric clock activated. Movement of the tip of the tail exposes a photocell to the lamp, which turns off the thermal stimulus and stops the clock. If a rat fails to move its tail within 8 seconds, the heat is automatically turned off to prevent blistering. The intensity of the lamp is adjusted in each case to produce at least three baseline tail-flick latencies of 2.5-4.5 seconds. Tests are initially made every 2 minutes, then every 5 minutes and finally every 15 minutes.
Initially, using the above outlined procedure, the effects of intraventricularly administered leucine-enkephalin are tested in rats according to the above procedure.
The rat tail flick procedure is repeated, first by the simultaneous intraventricular injection of both leucine-enkephalin and bestatin and then by the initial injection of bestatin followed one hour later by the injection of leucine-enkephalin.
The above procedure is repeated again, however, the bestatin is administered first and then one hour later the leucine-enkephalin is administered.
The effects of bestatin alone are tested in rats according to the rat tail flick procedure.

bleomycin hydrolase = target: T1, bleomycin hydrolase (Homo sapiens, UniProt Q13867); conditions: cited from earlier work
T1 sequence (Q13867 1-455): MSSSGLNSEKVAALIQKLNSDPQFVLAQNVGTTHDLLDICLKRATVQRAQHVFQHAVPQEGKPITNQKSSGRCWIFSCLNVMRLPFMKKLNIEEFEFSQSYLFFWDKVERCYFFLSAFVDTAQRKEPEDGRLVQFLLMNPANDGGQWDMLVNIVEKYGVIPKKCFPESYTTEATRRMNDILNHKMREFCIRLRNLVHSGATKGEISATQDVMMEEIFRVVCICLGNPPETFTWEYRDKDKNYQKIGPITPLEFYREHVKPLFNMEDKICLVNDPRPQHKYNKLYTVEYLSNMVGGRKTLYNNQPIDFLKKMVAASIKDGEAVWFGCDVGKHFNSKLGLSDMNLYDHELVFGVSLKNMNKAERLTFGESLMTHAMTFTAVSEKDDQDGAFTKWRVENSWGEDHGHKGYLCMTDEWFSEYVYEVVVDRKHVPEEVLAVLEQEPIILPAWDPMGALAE

leucine aminopeptidase = conditions: cited from earlier work
aminopeptidase B = aminopeptidase B (Homo sapiens, UniProt Q9H4A4); conditions: cited from earlier work
Sequence of aminopeptidase B (Q9H4A4 whole entry, species assumed): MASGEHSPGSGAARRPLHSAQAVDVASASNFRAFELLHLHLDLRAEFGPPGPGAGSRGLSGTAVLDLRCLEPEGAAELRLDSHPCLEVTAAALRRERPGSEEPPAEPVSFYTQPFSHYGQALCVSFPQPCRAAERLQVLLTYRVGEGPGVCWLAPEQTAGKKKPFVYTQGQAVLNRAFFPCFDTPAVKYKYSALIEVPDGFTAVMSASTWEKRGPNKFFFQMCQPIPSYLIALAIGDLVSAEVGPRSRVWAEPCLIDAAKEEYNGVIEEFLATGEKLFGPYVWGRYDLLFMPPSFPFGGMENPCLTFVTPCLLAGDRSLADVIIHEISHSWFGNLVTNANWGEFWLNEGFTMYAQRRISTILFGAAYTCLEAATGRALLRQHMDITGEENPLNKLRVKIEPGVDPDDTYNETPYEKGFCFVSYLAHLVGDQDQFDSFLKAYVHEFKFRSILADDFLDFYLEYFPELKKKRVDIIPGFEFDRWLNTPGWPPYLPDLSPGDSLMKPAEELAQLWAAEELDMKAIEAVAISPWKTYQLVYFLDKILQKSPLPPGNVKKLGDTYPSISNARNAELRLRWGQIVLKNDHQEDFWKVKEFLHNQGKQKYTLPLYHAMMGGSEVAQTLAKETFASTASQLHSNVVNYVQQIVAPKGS

`CC(C)C[C@H](NC(=O)[C@@H](O)[C@H](N)Cc1ccccc1)C(=O)O` [bestatin, [(2S,3R)-3-amino-2-hydroxy-4-phenylbutanoyl]-L-leucine] gave a Tail-flick latency (male Charles River rats; 400 μg bestatin alone into lateral ventricle, Rat 2, 30 min) of 8.00 s, a Tail-flick latency (male Charles River rats; 400 μg bestatin alone into lateral ventricle, Rat 2, 35 min) of 8.00 s and a Tail-flick latency (male Charles River rats; 400 μg bestatin alone into lateral ventricle, Rat 2, 40 min) of 8.00 s. It also gave a Tail-flick latency (male Charles River rats; 400 μg bestatin alone into lateral ventricle, Rat 2, 45 min) of 8.00 s, a Tail-flick latency (male Charles River rats; 400 μg bestatin alone into lateral ventricle, Rat 2, 50 min) of 8.00 s and a Tail-flick latency (male Charles River rats; 400 μg bestatin alone into lateral ventricle, Rat 2, 55 min) of 8.00 s. The Tail-flick latency (male Charles River rats; 400 μg bestatin alone into lateral ventricle, Rat 2, 60 min) was 8.00 s, the Tail-flick latency (male Charles River rats; 400 μg bestatin alone into lateral ventricle, Rat 2, 75 min) was 8.00 s and the Tail-flick latency (male Charles River rats; 400 μg bestatin alone into lateral ventricle, Rat 2, 90 min) was 8.00 s. The Tail-flick latency (male Charles River rats; 400 μg bestatin alone into lateral ventricle, Rat 2, 105 min) was 8.00 s, the Tail-flick latency (male Charles River rats; 400 μg bestatin alone into lateral ventricle, Rat 2, 120 min) was 8.00 s and the Tail-flick latency (male Charles River rats; 400 μg bestatin alone into lateral ventricle, Rat 2, 135 min) was 8.00 s. For the same compound, the Tail-flick latency (male Charles River rats; 400 μg bestatin alone into lateral ventricle, Rat 2, 150 min) was 8.00 s, the Tail-flick latency (male Charles River rats; 400 μg bestatin alone into lateral ventricle, Rat 2, 165 min) was 8.00 s and the Tail-flick latency (male Charles River rats; 400 μg bestatin alone into lateral ventricle, Rat 2, 180 min) was 8.00 s. It also gave a Tail-flick latency (male Charles River rats; 400 μg bestatin alone into lateral ventricle, Rat 2, 195 min) of 8.00 s, a Tail-flick latency (male Charles River rats; 400 μg bestatin alone into lateral ventricle, Rat 2, 210 min) of 8.00 s and a Tail-flick latency (male Charles River rats; 400 μg bestatin alone into lateral ventricle, Rat 2, 225 min) of 8.00 s. The Tail-flick latency (male Charles River rats; 400 μg bestatin alone into lateral ventricle, Rat 2, 240 min) was 8.00 s, the Tail-flick latency (male Charles River rats; 400 μg bestatin alone into lateral ventricle, Rat 2, 255 min) was 8.00 s and the Tail-flick latency (male Charles River rats; 400 μg bestatin alone into lateral ventricle, Rat 2, 270 min) was 8.00 s. It also gave a Tail-flick latency (male Charles River rats; 400 μg bestatin alone into lateral ventricle, Rat 2, 285 min) of 8.00 s, a Tail-flick latency (male Charles River rats; 400 μg bestatin alone into lateral ventricle, Rat 2, 300 min) of 5.19 s and a Tail-flick latency (male Charles River rats; 400 μg bestatin alone into lateral ventricle, Rat 2, 315 min) of 4.32 s. It also gave a Tail-flick latency (male Charles River rats; 400 μg bestatin alone into lateral ventricle, Rat 2, 330 min) of 4.11 s, a Tail-flick latency (male Charles River rats; 400 μg leucine-enkephalin + 200 μg bestatin injected together into lateral ventricle, 1 rat, 2 min) of 7.31 s and a Tail-flick latency (male Charles River rats; 400 μg leucine-enkephalin + 200 μg bestatin injected together into lateral ventricle, 1 rat, 4 min) of 7.56 s. The Tail-flick latency (male Charles River rats; 400 μg leucine-enkephalin + 200 μg bestatin injected together into lateral ventricle, 1 rat, 6 min) was 5.78 s, the Tail-flick latency (male Charles River rats; 400 μg leucine-enkephalin + 200 μg bestatin injected together into lateral ventricle, 1 rat, 8 min) was 6.69 s and the Tail-flick latency (male Charles River rats; 400 μg leucine-enkephalin + 200 μg bestatin injected together into lateral ventricle, 1 rat, 10 min) was 6.99 s. For the same compound, the Tail-flick latency (male Charles River rats; 400 μg leucine-enkephalin + 200 μg bestatin injected together into lateral ventricle, 1 rat, 12 min) was 8.00 s, the Tail-flick latency (male Charles River rats; 400 μg leucine-enkephalin + 200 μg bestatin injected together into lateral ventricle, 1 rat, 14 min) was 8.00 s and the Tail-flick latency (male Charles River rats; 400 μg leucine-enkephalin + 200 μg bestatin injected together into lateral ventricle, 1 rat, 16 min) was 6.50 s. The Tail-flick latency (male Charles River rats; 400 μg leucine-enkephalin + 200 μg bestatin injected together into lateral ventricle, 1 rat, 18 min) was 5.31 s, the Tail-flick latency (male Charles River rats; 400 μg leucine-enkephalin + 200 μg bestatin injected together into lateral ventricle, 1 rat, 20 min) was 2.31 s and the Tail-flick latency (male Charles River rats; 400 μg leucine-enkephalin + 200 μg bestatin injected together into lateral ventricle, 1 rat, 22 min) was 8.00 s. It also gave a Tail-flick latency (male Charles River rats; 400 μg leucine-enkephalin + 200 μg bestatin injected together into lateral ventricle, 1 rat, 24 min) of 6.23 s, a Tail-flick latency (male Charles River rats; 400 μg leucine-enkephalin + 200 μg bestatin injected together into lateral ventricle, 1 rat, 26 min) of 8.00 s and a Tail-flick latency (male Charles River rats; 400 μg leucine-enkephalin + 200 μg bestatin injected together into lateral ventricle, 1 rat, 28 min) of 8.00 s. For the same compound, the Tail-flick latency (male Charles River rats; 400 μg leucine-enkephalin + 200 μg bestatin injected together into lateral ventricle, 1 rat, 30 min) was 8.00 s, the Tail-flick latency (male Charles River rats; 400 μg leucine-enkephalin + 200 μg bestatin injected together into lateral ventricle, 1 rat, 32 min) was 4.90 s and the Tail-flick latency (male Charles River rats; 400 μg leucine-enkephalin + 200 μg bestatin injected together into lateral ventricle, 1 rat, 34 min) was 8.00 s. The Tail-flick latency (male Charles River rats; 400 μg leucine-enkephalin + 200 μg bestatin injected together into lateral ventricle, 1 rat, 36 min) was 8.00 s, the Tail-flick latency (male Charles River rats; 400 μg leucine-enkephalin + 200 μg bestatin injected together into lateral ventricle, 1 rat, 38 min) was 4.75 s and the Tail-flick latency (male Charles River rats; 400 μg leucine-enkephalin + 200 μg bestatin injected together into lateral ventricle, 1 rat, 40 min) was 8.00 s. For the same compound, the Tail-flick latency (male Charles River rats; 400 μg leucine-enkephalin + 200 μg bestatin injected together into lateral ventricle, 1 rat, 42 min) was 3.21 s, the Tail-flick latency (male Charles River rats; 400 μg leucine-enkephalin + 200 μg bestatin injected together into lateral ventricle, 1 rat, 44 min) was 3.29 s and the Tail-flick latency (male Charles River rats; 400 μg leucine-enkephalin + 200 μg bestatin injected together into lateral ventricle, 1 rat, 46 min) was 2.47 s. The “Analgesia induced by bestatin alone” value (male Charles River rats; 400 μg level, lateral ventricle, rats) was “very potent analgesia”, the “Effect on the analgesic effects of leucine-enkephalin” value (male Charles River rats; bestatin administered one hour prior to leucine-enkephalin, intraventricular, rat) was “can be extended by bestatin” and the “Effect on the analgesic effect of leucine-enkephalin” value (male Charles River rats; bestatin given simultaneously with leucine-enkephalin, intraventricular, rat) was “very significantly extend the analgesic effect of leucine-enkephalin”. For the same compound, the “Inhibition of bleomycin hydrolase” value (bleomycin hydrolase) was “inhibitors”, the “Inhibition of leucine aminopeptidase” value (leucine aminopeptidase) was “inhibitors” and the “Inhibition of aminopeptidase B” value (aminopeptidase B) was “inhibitors”.
